Test results reported in patent US8088574B2, “Poly(A) polymerase” (Wisconsin Alumni Research Foundation, priority 2007, dated 2012).
“Also recorded” adds a separate entry of the source.

T1: CKIα (Rattus norvegicus, UniProt P97633)
T1 construct: made in house; host or cells: HEK 293 cells
T1 sequence (P97633 1-325): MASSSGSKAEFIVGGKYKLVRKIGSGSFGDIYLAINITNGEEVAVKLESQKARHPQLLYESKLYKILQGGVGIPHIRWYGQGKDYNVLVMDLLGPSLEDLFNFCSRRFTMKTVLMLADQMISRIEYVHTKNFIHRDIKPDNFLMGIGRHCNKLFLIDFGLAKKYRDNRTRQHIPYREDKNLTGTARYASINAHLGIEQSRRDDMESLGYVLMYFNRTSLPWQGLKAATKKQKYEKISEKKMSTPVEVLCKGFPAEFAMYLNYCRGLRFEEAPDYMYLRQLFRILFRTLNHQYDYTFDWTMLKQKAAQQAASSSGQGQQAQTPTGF

T2: Star-PAP complex (Homo sapiens, UniProt Q9H6E5, D66G)
T2 construct: made in house; host or cells: HEK-293 cells stably expressing FLAG-Star-PAP, treated with tBHQ before purification
T2 sequence (Q9H6E5 1-874 D66G): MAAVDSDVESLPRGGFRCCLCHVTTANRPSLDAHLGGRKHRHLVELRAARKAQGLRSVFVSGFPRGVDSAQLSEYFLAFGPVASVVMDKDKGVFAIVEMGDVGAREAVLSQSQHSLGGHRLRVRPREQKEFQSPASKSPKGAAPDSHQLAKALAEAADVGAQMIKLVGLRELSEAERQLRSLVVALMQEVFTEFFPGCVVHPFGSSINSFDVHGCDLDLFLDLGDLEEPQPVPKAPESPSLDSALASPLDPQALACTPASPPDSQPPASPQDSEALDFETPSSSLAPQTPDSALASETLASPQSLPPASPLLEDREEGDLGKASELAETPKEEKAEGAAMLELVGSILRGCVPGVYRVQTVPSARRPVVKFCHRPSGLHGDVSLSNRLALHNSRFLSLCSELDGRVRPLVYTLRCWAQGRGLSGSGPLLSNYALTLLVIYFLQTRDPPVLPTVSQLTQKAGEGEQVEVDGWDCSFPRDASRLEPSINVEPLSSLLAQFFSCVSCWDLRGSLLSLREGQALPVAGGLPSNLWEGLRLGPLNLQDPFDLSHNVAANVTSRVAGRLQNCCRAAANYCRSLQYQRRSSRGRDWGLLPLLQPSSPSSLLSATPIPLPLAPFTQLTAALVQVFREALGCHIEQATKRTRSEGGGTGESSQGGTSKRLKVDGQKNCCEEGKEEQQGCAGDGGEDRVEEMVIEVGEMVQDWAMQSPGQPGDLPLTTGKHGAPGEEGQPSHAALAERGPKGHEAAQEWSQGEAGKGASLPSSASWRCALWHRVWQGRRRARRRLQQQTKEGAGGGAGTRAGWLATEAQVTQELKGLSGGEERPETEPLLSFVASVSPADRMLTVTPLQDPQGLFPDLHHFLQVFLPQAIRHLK

T3: Star-PAP (Homo sapiens, UniProt Q9H6E5, D66G)
T3 construct: full length His-Star-PAP was purified over a Ni^++ or glutathione columns; His; T7 tag; made in house; host or cells: E. coli BL21(DE3)
T3 sequence (Q9H6E5 1-874 D66G): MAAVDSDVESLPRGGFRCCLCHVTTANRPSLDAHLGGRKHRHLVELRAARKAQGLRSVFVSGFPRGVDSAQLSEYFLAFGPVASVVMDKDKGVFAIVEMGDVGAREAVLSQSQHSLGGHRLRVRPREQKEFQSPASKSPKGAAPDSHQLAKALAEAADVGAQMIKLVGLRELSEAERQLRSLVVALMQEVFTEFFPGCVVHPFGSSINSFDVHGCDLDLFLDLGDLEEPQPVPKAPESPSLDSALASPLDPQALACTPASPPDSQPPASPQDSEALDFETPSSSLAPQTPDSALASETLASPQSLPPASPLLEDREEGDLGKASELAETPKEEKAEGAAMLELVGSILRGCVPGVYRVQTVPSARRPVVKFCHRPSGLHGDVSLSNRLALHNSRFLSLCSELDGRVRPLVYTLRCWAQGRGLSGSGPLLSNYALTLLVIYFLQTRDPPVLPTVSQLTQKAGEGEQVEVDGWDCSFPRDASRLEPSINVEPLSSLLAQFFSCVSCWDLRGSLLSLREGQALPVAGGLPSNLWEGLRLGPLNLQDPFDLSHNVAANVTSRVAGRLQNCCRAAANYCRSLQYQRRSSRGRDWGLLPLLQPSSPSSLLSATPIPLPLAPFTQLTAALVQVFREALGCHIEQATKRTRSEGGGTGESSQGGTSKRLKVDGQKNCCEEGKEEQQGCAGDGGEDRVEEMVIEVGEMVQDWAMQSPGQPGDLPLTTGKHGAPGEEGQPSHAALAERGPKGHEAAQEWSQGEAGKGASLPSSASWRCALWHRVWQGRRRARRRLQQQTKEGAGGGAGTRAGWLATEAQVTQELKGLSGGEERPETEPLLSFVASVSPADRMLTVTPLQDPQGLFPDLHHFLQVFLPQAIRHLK


What was measured:
[1] = test system: T4, Star-PAP complex-associated kinase activity (CKI); assay: in vitro protein kinase assay of purified FLAG-Star-PAP complex: phosphorylation of Star-PAP by the complex-associated kinase activity; assay type: biochemical, Human; settings: for phosphorylation of Star-PAP by the complex-associated kinase activity: inhibitor 0.1-100 μM, 45 minutes on ice before ATP
T4 construct: other: PI4,5P2 micelles, 12.5-100 μM; phosphorylation of Star-PAP by the complex-associated kinase activity; Flag-Star-PAP and FLAG-PAPα were expressed in HEK 293 cells and purified on anti-FLAG M2 resin
Procedure: Synthetic PI4,5P2 (Echelon Biosciences Inc.) was resuspended in 50 mM Tris-HCL pH 7.9 at 2.5 mM and subjected to bath sonication to form micelles and used at final concentration of 12.5-100 μM.
The kinase assays were performed as described above in section 8 for the Star-PAP complexes. Except for inhibitor studies, all reaction components except ATP were incubated with inhibitors for 45 minutes on ice prior to starting the assay.

HO-1 mRNA = assay: quantitative real-time PCR of HO-1 mRNA in HEK 293 cells; settings: HEK 293 cells pretreated with CKI inhibitor (IC261 50 μM, CKI-7 250 μM, 2.5 h)
[2] = biological target: Star-PAP complex-associated kinase activity (CKI); settings: printed beside inhibitor name/vendor and in FIG. 23 legend; inhibitors used at 0.1-100 μM on FLAG-Star-PAP complex; cited from earlier work
CKIα = biological target: T1, CKIα; assay: in vitro phosphorylation of heat inactivated FLAG-Star-PAP by purified FLAG-CKIα; assay type: biochemical; settings: 50 μM
Procedure: Flag-Star-PAP and FLAG-PAPα were expressed in HEK 293 cells and purified on anti-FLAG M2 resin. Purified PAP complexes were subject to an in vitro protein kinase assay as follows. Protein kinase assays were performed in 1× kinase buffer (50 mM Tris-HCl pH 7.5, 10 mM MgCl2 and 0.5 mM EGTA). Assays were initiated by the addition of 10 μM ATP and 5 μCi γ^32P ATP to the reaction mix. Substrates included 100 μg/ml of the generic protein kinase substrates myelin basic protein (MBP) or casein. Heat inactivation of the endogenous kinase activity in the Star-PAP complex was destroyed by heating for 15 minutes at 65° C. The Star-PAP purified complex contained protein kinase activity toward both MBP and casein while the PAPα complex contained almost no detectable protein kinase activity (FIG. 19).
Casein Kinase Iα (CKIα), is a protein kinase found in nuclear speckles; moreover, CKIα activity is inhibited by PI4,5P2. […] FLAG proteins were expressed and purified as follows. Human Star-PAP and rat CKIα cDNAs were cloned in to the pFLAG-1 mammalian expression vector (Sigma). […]
Before the phosphorylation assay, endogenous kinase activity in the FLAG complex was destroyed by heat inactivation; no detectable phosphorylation activity was detected after heat inactivation. […]

Star-PAP complex = biological target: T2, Star-PAP complex; assay: PAP assay with Star-PAP complex purified from stably expressing HEK-293 cells treated with tBHQ; assay type: cell-based
Source text: Treatment of cells with tBHQ caused a large increase in Star-PAP complex activity for the initiation of polyadenylation. […] PI4,5P2 produced by PIPKIα in the complex may then control the processivity of Star-PAP, resulting in a lengthened poly(A) tail. In this manner Star-PAP may respond to oxidative stress signals, and potential other signals, to efficiently regulate the 3′ end formation and polyadenylation by the Star-PAP complex.

Star-PAP = biological target: T3, Star-PAP; assay: in vitro poly(A) polymerase assay with Star-PAP; assay type: biochemical
Source text: The poly(A) polymerase activity of PIP-PAPs such as Star-PAP, natural or artificial variants, homologues or fragments thereof may be tested by methods known in the art. (See e.g., Kyriakopoulou et al., (2001) J Biol Chem, 276:33504-11).
(§1) As another example, a specific 45 nt RNA oligonucleotide (UAGGGA)5A15 (SEQ ID NO: 22) was designed to serve as an RNA substrate in the poly(A) polymerase assay.
Because Star-PAP associates with the PI4,5P2 generating enzyme PIPKIα; the effect of exogenous phosphoinositides on the in vitro poly(A) polymerase activity of Star-PAP was evaluated. Star-PAP was incubated in the presence of various phosphoinositides (PI, PI3P, PI4P, PI5P, PI3,4P2, PI3,5P2, PI4,5P2 and PI3,4,5P3) or buffer only as a control. Following a brief incubation period the remaining components of the assay were added and allowed to react. In the absence of any phosphoinositide species, Star-PAP was able to extend an RNA primer to generate a modest poly(A) tail. In the presence of PI4,5P2 the incorporation of ATP into poly(A) tails was enhanced. […] This effect was specific for PI4,5P2 as all other inositol phospholipids assayed had no effect on Star-PAP activity in this assay.

[3] = biological target: yeast canonical poly(A) polymerase (Saccharomyces cerevisiae, UniProt P29468); assay: in vitro poly(A) polymerase assay with yeast canonical poly(A) polymerase control; assay type: biochemical; settings: (UAGGGA)5A15 primer
yeast canonical poly(A) polymerase, sequence (P29468 whole entry): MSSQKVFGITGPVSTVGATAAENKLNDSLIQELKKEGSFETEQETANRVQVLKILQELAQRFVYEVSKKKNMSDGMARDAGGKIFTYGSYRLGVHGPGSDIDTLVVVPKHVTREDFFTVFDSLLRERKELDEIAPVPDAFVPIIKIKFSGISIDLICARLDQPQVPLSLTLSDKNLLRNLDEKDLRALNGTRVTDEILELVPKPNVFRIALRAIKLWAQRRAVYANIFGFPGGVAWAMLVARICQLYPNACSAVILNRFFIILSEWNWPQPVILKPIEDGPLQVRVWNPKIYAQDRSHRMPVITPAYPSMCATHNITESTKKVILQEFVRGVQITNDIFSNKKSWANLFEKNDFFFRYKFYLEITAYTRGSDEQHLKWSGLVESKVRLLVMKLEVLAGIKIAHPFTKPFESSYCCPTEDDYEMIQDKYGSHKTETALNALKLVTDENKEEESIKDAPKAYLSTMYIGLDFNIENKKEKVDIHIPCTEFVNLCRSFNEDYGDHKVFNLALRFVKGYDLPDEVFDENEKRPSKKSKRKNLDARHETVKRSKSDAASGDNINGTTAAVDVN
Source text: as §1

PAPα = PAPα (Homo sapiens, UniProt P51003); assay: in vitro poly(A) polymerase assay with PAPα; assay type: biochemical; settings: 50 μM inositol phospholipid micelles
PAPα, sequence (P51003 whole entry): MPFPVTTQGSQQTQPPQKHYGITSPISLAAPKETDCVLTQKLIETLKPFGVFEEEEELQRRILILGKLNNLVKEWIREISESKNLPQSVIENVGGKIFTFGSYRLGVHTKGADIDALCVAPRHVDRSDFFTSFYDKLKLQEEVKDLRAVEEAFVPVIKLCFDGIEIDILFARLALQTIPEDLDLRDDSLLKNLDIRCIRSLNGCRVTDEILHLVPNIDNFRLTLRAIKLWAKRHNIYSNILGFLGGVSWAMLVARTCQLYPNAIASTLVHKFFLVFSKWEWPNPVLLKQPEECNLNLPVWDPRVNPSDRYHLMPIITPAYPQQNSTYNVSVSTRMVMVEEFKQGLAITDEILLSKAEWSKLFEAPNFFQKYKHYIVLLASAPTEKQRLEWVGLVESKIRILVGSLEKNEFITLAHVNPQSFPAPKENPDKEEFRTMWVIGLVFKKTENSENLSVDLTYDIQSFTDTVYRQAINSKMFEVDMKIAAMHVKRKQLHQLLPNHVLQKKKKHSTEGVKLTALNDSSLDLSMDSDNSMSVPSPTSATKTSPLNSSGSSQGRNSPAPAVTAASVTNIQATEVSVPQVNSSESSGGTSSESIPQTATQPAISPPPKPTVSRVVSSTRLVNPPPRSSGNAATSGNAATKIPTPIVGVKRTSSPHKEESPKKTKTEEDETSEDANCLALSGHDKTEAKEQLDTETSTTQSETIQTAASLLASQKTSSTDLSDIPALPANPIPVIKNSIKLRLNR

| Molecule | phosphorylation of Star-PAP by the complex-associated kinase activity [1] | basal levels of HO-1 mRNA (HO-1 mRNA) | IC50 [2] [µM] | phosphorylation of Star-PAP by CKIα (CKIα) | other results |
| --- | --- | --- | --- | --- | --- |
| NCCNS(=O)(=O)c1ccc(Cl)c2ccncc12 [CKI-7] | block the phosphorylation of Star-PAP by the complex-associated kinase activity in a dose dependent fashion | reduce HO-1 | ~6 |  |  |
| COc1cc(OC)c(C=C2C(O)=Nc3ccccc32)c(OC)c1 [IC261] | block the phosphorylation of Star-PAP by the complex-associated kinase activity in a dose dependent fashion | reduce HO-1 | 11 | blocked; also recorded: can block CKIα phosphorylation of Star-PAP |  |
| CC(C)(C)c1cc(O)ccc1O [tBHQ, tert-butylhydroquinone] |  |  |  |  | increase in enzymatic activity of Star-PAP complex over Star-PAP from control cells (Star-PAP complex; cells treated with 100 μM tBHQ): more than 15 fold |
| cordycepin triphosphate |  |  |  |  | Star-PAP poly(A) polymerase activity with chain terminator (Star-PAP; (UAGGGA)5A15 primer): inhibited in a dose dependent fashion; yeast canonical poly(A) polymerase activity with chain terminator [3]: inhibited in a dose dependent fashion |
| phosphatidylinositol-4,5-bisphosphate [PI4,5P2] |  |  |  | blocked; also recorded: can block CKIα phosphorylation of Star-PAP | concentration at which phosphorylation of FLAG-Star-PAP was inhibited (as low as) ([1]; PI4,5P2 micelles, 12.5-100 μM): 12.5 µM; Star-PAP processivity (length of the poly(A) tails) (Star-PAP complex; Star-PAP isolated from tBHQ-treated cells, time course): stimulated Star-PAP processivity, increasing the length of the poly(A) tails; effect of phosphoinositide on PAPα activity (PAPα): no phosphoinositides tested, including PI4,5P2 stimulated the activity of PAPα; effect of phosphoinositide on Star-PAP poly(A) polymerase activity (incorporation of ATP into poly(A) tails) (Star-PAP; 50 μM inositol phospholipid micelles): enhanced |
| Star-PAP: novel PIP-regulated poly(A) polymerase, SEQ ID NO: 2 (protein, listed as Homo sapiens) MAAVDSDVESLPRGGFRCCLCHVTTANRPSLDAHLGGRKHRHLVELRAARKAQGLRSVFVSGFPRGVDSAQLSEYFLAFGPVASVVMDKDKGVFAIVEMGDVGAREAVLSQSQHSLGGHRLRVRPREQKEFQSPASKSPKGAAPDSHQLAKALAEAADVGAQMIKLVGLRELSEAERQLRSLVVALMQEVFTEFFPGCVVHPFGSSINSFDVHGCDLDLFLDLGDLEEPQPVPKAPESPSLDSALASPLDPQALACTPASPPDSQPPASPQDSEALDFETPSSSLAPQTPDSALASETLASPQSLPPASPLLEDREEGDLGKASELAETPKEEKAEGAAMLELVGSILRGCVPGVYRVQTVPSARRPVVKFCHRPSGLHGDVSLSNRLALHNSRFLSLCSELDGRVRPLVYTLRCWAQGRGLSGSGPLLSNYALTLLVIYFLQTRDPPVLPTVSQLTQKAGEGEQVEVDGWDCSFPRDASRLEPSINVEPLSSLLAQFFSCVSCWDLRGSLLSLREGQALPVAGGLPSNLWEGLRLGPLNLQDPFDLSHNVAANVTSRVAGRLQNCCRAAANYCRSLQYQRRSSRGRDWGLLPLLQPSSPSSLLSATPIPLPLAPFTQLTAALVQVFREALGCHIEQATKRTRSEGGGTGESSQGGTSKRLKVDGQKNCCEEGKEEQQGCAGDGGEDRVEEMVIEVGEMVQDWAMQSPGQPGDLPLTTGKHGAPGEEGQPSHAALAERGPKGHEAAQEWSQGEAGKGASLPSSASWRCALWHRVWQGRRRARRRLQQQTKEGAGGGAGTRAGWLATEAQVTQELKGLSGGEERPETEPLLSFVASVSPADRMLTVTPLQDPQGLFPDLHHFLQVFLPQAIRHLK |  |  |  |  | specific poly(A) polymerase activity relative to canonical PAPα (Star-PAP; side-by-side with PAPα): 1.3 fold |
